Residues, ends and D or L forms follow the SMILES beside them. *: point of attachment. Mts = Cc1cc(C)c(S(=O)(=O)*)c(C)c1; Npys = O=[N+]([O-])c1cccnc1S*; X1 = COc1ccc(COC(=O)*)cc1; Boc = CC(C)(C)OC(=O)*; OBn = c1ccc(CO*)cc1; X2 = C1CCCC(O*)CC1; NHNH2 = NN*
Key:
[1] = Solubility of the compound in DMEM medium at > 30 uM; type: physicochemical
A549 = test: Growth inhibition of human A549 cells after 72 hrs by MTS assay; type: functional, cell-based; details: A549, 72 h
Protein Mdm4 = molecular target: T1, Protein Mdm4 (Homo sapiens, UniProt O15151); test: Inhibition of MDMX (unknown origin) binding to FAM-LTFEHYWAQLTS-NH2 after 30 mins by fluorescence polarization assay
T1 sequence (O15151 whole entry): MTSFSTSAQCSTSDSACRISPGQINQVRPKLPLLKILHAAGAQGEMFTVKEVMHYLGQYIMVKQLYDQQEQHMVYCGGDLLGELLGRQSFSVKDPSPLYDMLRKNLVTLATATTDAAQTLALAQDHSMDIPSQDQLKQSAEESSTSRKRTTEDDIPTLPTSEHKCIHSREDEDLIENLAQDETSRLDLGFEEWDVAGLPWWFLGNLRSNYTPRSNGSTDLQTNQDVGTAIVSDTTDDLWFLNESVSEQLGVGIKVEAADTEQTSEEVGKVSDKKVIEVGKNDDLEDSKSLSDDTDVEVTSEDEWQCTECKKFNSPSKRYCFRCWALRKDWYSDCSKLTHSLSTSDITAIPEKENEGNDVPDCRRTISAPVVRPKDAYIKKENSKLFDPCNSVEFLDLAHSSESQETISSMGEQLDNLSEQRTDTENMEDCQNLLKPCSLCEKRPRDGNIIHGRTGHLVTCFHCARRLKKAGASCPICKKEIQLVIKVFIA

[2] = molecular target: E3 ubiquitin-protein ligase Mdm2 (Homo sapiens, UniProt Q00987); test: Inhibition of MDM2 (unknown origin) binding to FAM-LTFEHYWAQLTS-NH2 after 30 mins by fluorescence polarization assay
E3 ubiquitin-protein ligase Mdm2, sequence (Q00987 whole entry): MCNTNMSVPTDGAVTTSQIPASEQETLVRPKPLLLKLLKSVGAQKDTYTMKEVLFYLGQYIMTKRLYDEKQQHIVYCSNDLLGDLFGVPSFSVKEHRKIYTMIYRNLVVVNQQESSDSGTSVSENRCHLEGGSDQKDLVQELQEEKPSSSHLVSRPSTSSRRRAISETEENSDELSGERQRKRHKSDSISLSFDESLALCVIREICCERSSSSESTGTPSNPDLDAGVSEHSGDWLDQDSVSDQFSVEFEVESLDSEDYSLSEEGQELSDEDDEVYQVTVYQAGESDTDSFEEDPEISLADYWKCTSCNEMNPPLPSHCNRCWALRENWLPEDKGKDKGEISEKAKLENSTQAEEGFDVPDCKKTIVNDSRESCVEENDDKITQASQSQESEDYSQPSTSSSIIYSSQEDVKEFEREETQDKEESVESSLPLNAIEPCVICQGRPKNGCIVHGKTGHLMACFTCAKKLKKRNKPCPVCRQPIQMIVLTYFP

solubility [1]	EC50 (A549)	IC50 (Protein Mdm4)	IC50 [2]	Structure (SMILES)
Insoluble	> 30 µM	32.4 µM	8.51 µM	COc1ccc(COC(=O)N[C@H](C(=O)N[C@@H](CCC(C)=O)C(=O)N[C@@H](Cc2cn(S(=O)(=O)c3c(C)cc(C)cc3C)c3ccccc23)C(=O)N[C@@H](CC(C)C)C(=O)NN)C(C)C)cc1
–	13.7 µM	42.1 µM	22.2 µM	CC[C@H](C)[C@H](NC(=O)[C@H](Cc1ccccc1)NC(=O)[C@H](CSSc1ncccc1[N+](=O)[O-])NC(=O)OC(C)(C)C)C(=O)N[C@@H](CCCNC(=N)NS(=O)(=O)c1c(C)cc(C)cc1C)C(=O)OC (Boc-C(Npys)FIR(Mts)-OMe)
Insoluble	> 30 µM	52.5 µM	21.3 µM	COc1ccc(COC(=O)N[C@@H](C)C(=O)N[C@@H](CCC(=O)OCc2ccccc2)C(=O)N[C@@H](CC(C)C)C(=O)N[C@H](C(=O)N[C@@H](CC(=O)OC2CCCCCC2)C(=O)N[C@@H](C)C(=O)NN)C(C)C)cc1 (X1-AE(OBn)LVD(X2)A-NHNH2)
